Values joined by “and” are separate entries in the source; they are usually repeats but may differ in a detail not shown here. Equal values may be shown once.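 Five compound concentrations were applied to cells in 96-well plates for 48 hours; endpoints were derived by simple linear interpolation of the resulting dose-response curve. The concentration for 50% growth inhibition is given as GI50. Definition used: TGI = concentration required for complete inhibition of growth.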 *1 amine or outer side, *2 acyl side, *3 side chain or, on linkers, in order; H or OH if unused. Where a SMILES comes first, the peptide text is derived from it. [ ]: non-standard residue; d: D form. The star is where a group is joined. X11 = C/C=C/CC(C)C(O)[C@H](N[*:1])C(=O)[*:2]; Decanoyl = CCCCCCCCCC(=O)*; Leu(ol) = CC(C)C[C@H](N)CO; Iva = CC[C@](C)(N)C(=O)O; Aib = CC(C)(N)C(=O)O

This assay concerns MDA-MB-468 breast. The experiment in a line: NCI anticancer screen, dose series, 48 h.
Regarding `Nc1cc(NN=C(c2ccc(O)cc2)c2ccc(O)cc2)c([N+](=O)[O-])cc1[N+](=O)[O-]`, the GI50 is 2190 nM and the TGI is 4.82 µM. Taken in the same sequence, the figures for `CCN(C(=O)N1CCN(c2cc3c(cc2F)c(=O)c(C(=O)O)cn3C2CC2)CC1)c1nc(-c2ccc(Cl)cc2)cs1` were 1490 nM and 6.79 µM. Take `COc1cccc(-c2nc(-c3ccc(NC(=O)OC(C)C)cc3)[nH]c2-c2ccnc(Br)c2)c1`: the GI50 was 2030 nM and the TGI stood at 6.5 µM.

For `Nc1c(C(=O)Nc2cccc(C(F)(F)F)c2)sc2nc3c(cc12)CCCCC3`, the GI50 is 394 nM and the TGI was determined as 3.01 µM. For `c1ccc(Sc2ncnc3ccccc23)cc1`, in that order: 2980 nM and 12.3 µM.

In the case of `COc1cc(/C(C#N)=C/c2nc3c(N4CCOCC4)nc(Cl)nc3n2C)cc(OC)c1OC`, the GI50 is under 13.1 nM.

With `COc1ccc(CN2C(=O)/C(=C\c3cc(OC)c(OC)c(OC)c3)c3ccccc32)cc1`, the GI50 was 1940 nM and the TGI was found to be 5.61 µM. For `Nc1ccccc1SC(CC(=O)c1ccccc1)c1cccc([N+](=O)[O-])c1` (centres undefined), in that order: 15400 nM and 31.3 µM. As for `O=C(Nc1ccc(Oc2ccc(Nc3nc4ccccc4s3)cc2)cc1)Nc1ccc(Cl)c(C(F)(F)F)c1`, the GI50 was 405 nM and the TGI turned out to be 2.2 µM. Taken in the same sequence, the figures for `O=C(N/N=C/c1ccc[nH]1)c1[nH]c2ccc(Br)cc2c1-c1ccccc1` were 196 nM and 1.15 µM.

`CC1(COc2ccc3c(c2)ncn3-c2ccc3cccc(N4CCC(N)CC4)c3n2)COC1`: the GI50 was 1340 nM and 2000 nM; the TGI was 2.94 µM and 4.95 µM. Turning to `C/C=C/CC(C)C(O)[C@H](NC(=O)[C@@H]1CCCN1C(=O)C(C)(C)NC(=O)CCCCCCCCC)C(=O)N[C@@](C)(CC)C(=O)N[C@@H](CCC(N)=O)C(=O)N[C@H](CCC(N)=O)C(=O)NC(C)(C)C(=O)NC(C)(C)C(=O)N[C@@H](CCC(N)=O)C(=O)N[C@H](CC(C)C)C(=O)N[C@H](CO)CC(C)C` (stereo partly drawn) (Decanoyl-[Aib]P[X11][Iva]Q[dQ][Aib][Aib]Q[dL][Leu(ol)]), the GI50 was 1790 nM and the TGI was determined as 3.42 µM. For `Cc1cc(C)cc(NC2=C(Cl)C(=O)c3nc(C)ccc3C2=O)c1`, in that order: 1640 nM and 3.2 µM.

In the case of `O=C1NC(=NC(CO)Cc2ccccc2)S/C1=C\c1ccc2ncccc2c1` (centres undefined), the GI50 is 7070 nM and 2140 nM; the TGI is > 25 µM and 13.7 µM. Take `COCCOc1ccc(-c2nc3ccc(-c4nc5ccc(N6CCN(C)CC6)cc5[nH]4)cc3[nH]2)cc1`: the GI50 is 1420 nM and the TGI came out at 4.16 µM. For the compound `Clc1cccc(/C=N/Nc2nc(N/N=C/c3cccc(Cl)c3)nc(N3CCOCC3)n2)c1`, the GI50 was 1650 nM and the TGI amounted to 4.28 µM. Regarding `CCCCCCCCCCCCCCCC[N+](C)(C)Cc1ccccc1`, the GI50 was 328 nM and the TGI came to 1.2 µM.

Regarding `Nc1n[nH]c2cccc(C#Cc3cccc(C(=O)Nc4ccc(CN5CCOCC5)c(C(F)(F)F)c4)c3)c12`, the GI50 was 2870 nM and the TGI was determined as 9.72 µM. With `COc1cc(-c2ccc3cc(OC)c(OC)c(OC)c3c2)cc(OC)c1OC`, the GI50 is 3300 nM and the TGI is over 100 µM.

In the case of `Nc1n[nH]c2cc(F)c([C@@H]3Nc4ccc5[nH]ncc5c4[C@H]4C5CCC(C5)[C@@H]34)cc12` (some centres undefined), the GI50 was 150 nM and the TGI is 1.9 µM. Taken in the same sequence, the figures for `Cc1csc(-c2nnc(Nc3ccc(Oc4ncccc4-c4ccnc(N)n4)cc3)c3ccccc23)c1` were under 11.5 nM and over 100 µM. On to `CCN(Cc1ccc(F)cc1)c1cc(Cl)c(CO)c(Cl)c1`, for which the GI50 is 1890 nM and the TGI amounted to 6.34 µM. Taken in the same sequence, the figures for `CN(C)c1cc(NN=C(c2ccc(O)cc2)c2ccc(O)cc2)c([N+](=O)[O-])cc1[N+](=O)[O-]` were 10100 nM and 22.6 µM. Taken in the same sequence, the figures for `CN1CC[C@@H](NC(=O)Nc2ccc(C#N)cc2)C[C@@H]1c1nc2ccccc2[nH]1` were 43300 nM and over 100 µM.

For `CN1CCN(Cc2ccc(NC(=O)c3cncc(C#Cc4cnc5ccc(N6CCSCC6)nn45)c3)cc2C(F)(F)F)CC1`, the GI50 was 146 nM and the TGI is 0.302 µM. For `Nc1ccc(C2=NNC(=O)Cc3cc4c(cc32)OCCO4)cc1Cl`, in that order: 1580 nM and 15.9 µM. On to `COc1ccc2nc3cc(Cl)ccc3c(NCCNCC(C)O)c2c1` (centres undefined), for which the GI50 was 1550 nM and the TGI is 3.36 µM. Taken in the same sequence, the figures for `Cc1nnc(NC(=O)c2nc(S(=O)(=O)Cc3ccc(F)cc3)ncc2Cl)s1` were 1200 nM and 3.28 µM. As for `O=C1c2cc3c(cc2-c2c1c1ccc(F)cc1c(=O)n2C[C@H](O)[C@@H](O)[C@H](O)CO)OCO3`, the GI50 was 27.4 nM and the TGI was found to be 0.0759 µM. Taken in the same sequence, the figures for `C=C1C(=O)O[C@H]2[C@H]1CC/C(COC(=O)NCc1ccc(Cn3c(=O)sn(-c4ccc(OC)cc4)c3=O)cc1)=C\CC[C@@]1(C)O[C@@H]21` were 1530 nM and 3.54 µM. For `COc1ccc(/C=N/NC(=O)c2cccc3cc[nH]c23)cc1O`, in that order: 3350 nM and over 25.2 µM.

`COc1ccc([C@H]2[C@H](O)C(=O)N2c2cc(OC)c(OC)c(OC)c2)cc1O`: the GI50 was under 10 nM and the TGI was over 100 µM. In the case of `CCCCCCCCCCn1cc[n+](C)c1`, the GI50 was 481 nM.

Take `COC[C@H]1Cn2cc(-c3nc(Nc4ccnn4C)ncc3C)nc2C(=O)N1Cc1ccc(F)c(F)c1`: the GI50 was 26300 nM and the TGI is over 100 µM.

`CC(C)[C@@H]1C=C2CC[C@H]3[C@](C)(CN)CCC[C@]3(C)[C@H]2CC1`: the GI50 was 13200 nM and the TGI was determined as 28.2 µM. Taken in the same sequence, the figures for `O=C(CCCSc1nc(-c2ccccc2)cc(-c2ccccc2)n1)NO` were 1490 nM and 4.69 µM.

Take `CCN1C(=O)N(c2ccccc2)C2NC(=S)N(/N=C/C=C/c3ccccc3OC)C21` (centres undefined): the GI50 was 114 nM and the TGI is 14.2 µM. Regarding `COc1ccc(-c2cn[nH]c2-c2cc(OC)c(OC)c(OC)c2)cc1`, the GI50 is 42.2 nM and the TGI was 30.3 µM. For `CCCOc1cc2ccccc2cc1C(=O)Nc1nc(N)c2c(ccc3nccc32)[nH]1`, in that order: 54.2 nM and 0.516 µM.

As for `COc1cccc(C(=O)NC(c2ccc(C)cc2)c2cc(Cl)c3cccnc3c2O)c1` (centres undefined), the GI50 was 397 nM and the TGI turned out to be 2.72 µM. As to `COc1ccc(CCN=C2NC(=O)/C(=C/c3ccc4ncccc4c3)S2)cc1`, the GI50 is over 18700 nM and the TGI was over 25 µM.

Regarding `CCn1c(-c2nonc2N)nc2c(C#CC(C)(C)O)nc(OC[C@@H](N)c3ccccc3)cc21`, the GI50 is 4060 nM and the TGI is 7.68 µM. As for `O=C(/C(=C/c1ccc([N+](=O)[O-])cc1)SCc1ccccc1)c1ccc(Cl)cc1`, the GI50 was 2250 nM and the TGI was found to be 5.83 µM.

The values above are taken from PubChem BioAssay (NCI).
